Calls of active or inactive are those of the source. The calls are words filed in the database; no cut-off is given here.
What was measured:
LS180 [1] = assay: (§1) Activation of PXR/LXR in human LS180 cells assessed as induction of P-gp measured as intracellular accumulation of Rhodamine-123 at 5 uM preincubated for 48 hrs followed by 40 mins incubation with HANKS buffer and subsequent addition of Rhodamine-123 measured after 90 mins by fluorescence analysis relative to control; type: cell-based
[2] = Cytotoxicity against human LS180 cells assessed as effect on cell viability at 50 uM measured after 24 hrs by MTT assay relative to control; type: toxicity, cell-based; details: read-out: Activity
[3] = Cytotoxicity against human SH-SY5Y cells assessed as effect on cell viability at 50 uM measured after 24 hrs by MTT assay relative to control; type: toxicity, cell-based; details: read-out: Activity
[4] = Therapeutic index, ratio of effective concentration for cytotoxicity in human SH-SY5Y cells to effective concentration for activation of PXR/LXR in human LS180 cells assessed as induction of P-gp; type: cell-based; details: read-out: TI
[5] = Therapeutic index, ratio of effective concentration for cytotoxicity in human LS180 cells to effective concentration for activation of PXR/LXR in human LS180 cells assessed as induction of P-gp; type: cell-based; details: read-out: TI
[6] = Cytotoxicity against human LS180 cells assessed as effect on cell viability measured after 24 hrs by MTT assay; type: toxicity, cell-based
[7] = Cytotoxicity against human SH-SY5Y cells assessed as effect on cell viability measured after 24 hrs by MTT assay; type: toxicity, cell-based
LS180 [8] = assay: as §1, with “by measuring decrease in” for “measured as”, “0.3” for “5”, “assay” for “analysis relative to control”; type: cell-based
LS180 [9] = assay: Activation of PXR/LXR in human LS180 cells assessed as induction of P-gp at 5 uM measured after 24 hrs by Western blot analysis; type: cell-based

Compound | Activity (LS180 [1]) [%] | viability at 24 h, 50 µM [2] [%] | viability at 24 h, 50 µM [3] [%] | selectivity ratio [4] | selectivity ratio [5] | IC50 at 24 h [6] [µM] | IC50 at 24 h [7] [µM] | Activity (LS180 [8]) | Activity (LS180 [9])
CC(=O)c1ccc(N(Cc2cn(-c3ccc(F)cc3)nn2)S(=O)(=O)c2ccccc2)cc1 | 55.9 | 60 | 90.4 | 10 | – | – | – | – | –
O=S(=O)(c1ccccc1)N(Cc1cn(-c2ccc(OC(F)(F)F)cc2)nn1)c1ccc(C(O)(C(F)(F)F)C(F)(F)F)cc1 | 67.8 | 68.7 | 43.5 | 10 | 10 | – | – | – | –
CC(=O)c1ccc(N(Cc2cn(-c3ccccc3F)nn2)S(=O)(=O)c2ccccc2)cc1 | 55.7 | 83.8 | 93.6 | 10 | – | – | – | – | –
CC(=O)c1ccc(N(Cc2cn(-c3ccc(Cl)cc3)nn2)S(=O)(=O)c2ccccc2)cc1 | 68.8 | 88.1 | 74.4 | – | 10 | – | – | – | –
CC(=O)c1ccc(N(Cc2cn(-c3ccc(C(C)=O)cc3)nn2)S(=O)(=O)c2ccccc2)cc1 | 66.2 | 87.3 | 97.3 | 10 | 10 | – | – | – | –
O=S(=O)(c1ccccc1)N(Cc1cn(-c2ccc(F)cc2F)nn1)c1ccc(C(O)(C(F)(F)F)C(F)(F)F)cc1 | 66.3 | 93.6 | 86.5 | 10 | – | – | – | – | –
CC(=O)c1ccc(N(Cc2cn(-c3ccccc3C)nn2)S(=O)(=O)c2ccccc2)cc1 | 65.1 | 64.4 | 92.9 | 10 | 10 | – | – | – | –
CC(=O)c1ccc(N(Cc2cn(-c3ccc([N+](=O)[O-])cc3)nn2)S(=O)(=O)c2ccccc2)cc1 | 55.6 | 74.7 | 105 | 10 | 10 | – | – | – | –
COc1ccc(-n2cc(CN(c3ccc(C(O)(C(F)(F)F)C(F)(F)F)cc3)S(=O)(=O)c3ccccc3)nn2)cc1 | 81.4 | 84.9 | 59.2 | 10 | 10 | – | – | – | –
CC(=O)c1ccc(N(Cc2cn(-c3ccc(C)cc3)nn2)S(=O)(=O)c2ccccc2)cc1 | 58.6 | 84.1 | 85.8 | 10 | 10 | – | – | – | –
CC(=O)c1ccc(N(Cc2cn(-c3cccc([N+](=O)[O-])c3)nn2)S(=O)(=O)c2ccccc2)cc1 | 71.6 | 112 | 74.2 | 10 | 10 | – | – | – | –
CC(=O)c1ccc(N(Cc2cn(-c3ccc(O)c([N+](=O)[O-])c3)nn2)S(=O)(=O)c2ccccc2)cc1 | 74 | 96.1 | 71.3 | 10 | 10 | – | – | – | –
O=S(=O)(c1ccccc1)N(CC(F)(F)F)c1ccc(C(O)(C(F)(F)F)C(F)(F)F)cc1 [T091317] | 64.2 | 73.3 | 94.8 | 10 | 10 | > 50 | > 50 | Active | Active
O=S(=O)(c1ccccc1)N(Cc1cn(-c2ccccc2F)nn1)c1ccc(C(O)(C(F)(F)F)C(F)(F)F)cc1 | 61.8 | 65.1 | 129 | 10 | 10 | – | – | Active | –
CC(=O)c1ccc(N(Cc2cn(-c3ccccc3C#N)nn2)S(=O)(=O)c2ccccc2)cc1 | 86.2 | 91.8 | 99 | 10 | 10 | – | – | – | –
C#CCN(c1ccc(C(O)(C(F)(F)F)C(F)(F)F)cc1)S(=O)(=O)c1ccccc1 | 60.8 | 89.5 | 112 | 10 | 10 | – | – | – | –
O=S(=O)(c1ccccc1)N(Cc1cn(-c2cccc(F)c2)nn1)c1ccc(C(O)(C(F)(F)F)C(F)(F)F)cc1 | 90.3 | 56 | 29.8 | 10 | 10 | – | – | – | –
CC(=O)c1ccc(-n2cc(CN(c3ccc(C(O)(C(F)(F)F)C(F)(F)F)cc3)S(=O)(=O)c3ccccc3)nn2)cc1 | 81.6 | 70.7 | 42.2 | 10 | 10 | – | – | – | –
COc1ccc(-n2cc(CN(c3ccc(C(C)=O)cc3)S(=O)(=O)c3ccccc3)nn2)cc1 | 86.3 | 93.3 | 88.5 | 10 | 10 | – | – | – | –

Compound | Activity (LS180 [1]) [%] | viability at 24 h, 50 µM [2] [%] | viability at 24 h, 50 µM [3] [%] | selectivity ratio [4] | selectivity ratio [5] | IC50 at 24 h [6] [µM] | IC50 at 24 h [7] [µM] | Activity (LS180 [8]) | Activity (LS180 [9])
Cc1ccc(-n2cc(CN(c3ccc(C(O)(C(F)(F)F)C(F)(F)F)cc3)S(=O)(=O)c3ccccc3)nn2)cc1C | 68.7 | 80 | 68.7 | 10 | 10 | – | – | – | –
O=[N+]([O-])c1ccc(-n2cc(CN(c3ccc(C(O)(C(F)(F)F)C(F)(F)F)cc3)S(=O)(=O)c3ccccc3)nn2)cc1 | 80.6 | 66.2 | 39.6 | 10 | 10 | – | – | – | –
CC(=O)c1ccc(N(Cc2cn(-c3ccc(OC(F)(F)F)cc3)nn2)S(=O)(=O)c2ccccc2)cc1 | 83.4 | 67.6 | 64.4 | 10 | 10 | – | – | – | –
CCOC(=O)c1ccc(-n2cc(CN(c3ccc(C(O)(C(F)(F)F)C(F)(F)F)cc3)S(=O)(=O)c3ccccc3)nn2)cc1 | 91.3 | 76.5 | 73.8 | 10 | 10 | – | – | – | –
O=S(=O)(c1ccccc1)N(Cc1cn(-c2ccc(C(F)(F)F)cc2)nn1)c1ccc(C(O)(C(F)(F)F)C(F)(F)F)cc1 | 70.2 | 62.8 | 49.8 | 10 | 10 | – | – | – | –
CC(=O)c1ccc(N(Cc2cn(-c3c(C)cccc3C)nn2)S(=O)(=O)c2ccccc2)cc1 | 58.4 | 60.6 | 80.4 | 10 | 10 | – | – | – | –
CC(=O)c1ccc(N(Cc2cn(-c3ccccc3)nn2)S(=O)(=O)c2ccccc2)cc1 | 53.4 | 86.3 | 114 | 10 | – | – | – | Active | –
Cc1ccc(-n2cc(CN(c3ccc(C(O)(C(F)(F)F)C(F)(F)F)cc3)S(=O)(=O)c3ccccc3)nn2)cc1 | 74.6 | 71.9 | 48.9 | – | 10 | – | – | – | –
CC(=O)c1ccc(N(Cc2ccccc2)S(=O)(=O)c2ccccc2)cc1 | 64.5 | 89.5 | 112 | – | 10 | – | – | – | –
CC(=O)c1ccc(N(Cc2cn(-c3ccc(C(O)(C(F)(F)F)C(F)(F)F)cc3)nn2)S(=O)(=O)c2ccccc2)cc1 | 87.4 | 103 | 123 | – | – | – | – | – | –
CC(=O)c1ccc(N(Cc2cn(-c3cccc(C(C)=O)c3)nn2)S(=O)(=O)c2ccccc2)cc1 | 71 | 84.7 | 78.7 | 10 | 10 | – | – | – | –
CC(=O)c1ccc(N(CC(F)(F)F)S(=O)(=O)c2ccccc2)cc1 | 63.5 | 88.3 | 81.3 | – | 10 | – | – | – | –
COC(=O)c1ccc(-n2cc(CN(c3ccc(C(C)=O)cc3)S(=O)(=O)c3ccccc3)nn2)cc1 | 77 | 80.6 | 71.8 | 10 | 10 | – | – | – | –
O=S(=O)(c1ccccc1)N(Cc1cn(-c2ccc(F)cc2)nn1)c1ccc(C(O)(C(F)(F)F)C(F)(F)F)cc1 | 70.5 | 51.5 | 36.4 | 10 | 10 | – | – | – | –
O=S(=O)(c1ccccc1)N(Cc1cn(-c2ccccc2)nn1)c1ccc(C(O)(C(F)(F)F)C(F)(F)F)cc1 | 87.9 | 46.4 | 39.5 | 10 | 10 | – | – | – | –
C#CCOC(c1ccc(N(CC#C)S(=O)(=O)c2ccccc2)cc1)(C(F)(F)F)C(F)(F)F | 79.7 | 78.7 | 88.7 | 10 | 10 | – | – | – | –
Cc1ccc(C)c(-n2cc(CN(c3ccc(C(O)(C(F)(F)F)C(F)(F)F)cc3)S(=O)(=O)c3ccccc3)nn2)c1 | 69 | 76.9 | 93 | 10 | 10 | – | – | – | –
CC(=O)c1ccc(N(Cc2cn(-c3ccccc3C(F)(F)F)nn2)S(=O)(=O)c2ccccc2)cc1 | 48.5 | 112 | 83.9 | 10 | 10 | – | – | – | Active

— ChEMBL document CHEMBL3865833, “Functional induction of P-glycoprotein efflux pump by phenyl benzenesulfonamides: Synthesis and biological evaluation of T0901317 analogs” (Eur J Med Chem, 2016)
